The data set in a line: gradient 5% acetonitrile 3 min, to 50% in 2 min, to 85% in 15 min, held 3 min, 100 µL/min. As to conditions: column: Zorbax Extend-C18 2.1 x 50 mm; eluents: water / acetonitrile, 0.1% formic acid. Summed up: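 Standards, all pure, were combined into mixtures of ~100 molecules and run at 100 μL/min on a Zorbax Extend-C18 column (2.1 × 50 mm, 1.8 μm) with water and acetonitrile, each containing 0.1% formic acid. A coupled quadrupole time-of-flight mass spectrometer operated in positive and negative ionization mode. Retention time values come from computationally picked adduct peaks, each inspected manually.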
`C[C@H]1CN(C(=O)c2ccc(F)cc2F)C[C@@H]1c1nc(-c2ccccc2)no1` came in with an RP-LC retention time of 1040 s. With `COc1ccc(NC(=O)C2CCc3nc(N4CCCCC4)ncc3C2)cc1C(F)(F)F` (centres undefined) the figure was 894 s. The value for `CC(C)(Oc1ccc(Cl)cc1)C(=O)Nc1c(-c2ccc(F)cc2)nc2ccccn12` was 821 s. With `CCc1nn(CC(=O)N2CCN(c3ccccn3)CC2)c(=O)c2cc3ccccc3n12` the figure was 607 s; with `COC(=O)CNC(=O)N1CCCC1c1ccccc1Cl` (centres undefined), 754 s. In the case of `COc1cc(N2CC(CNS(C)(=O)=O)OC2=O)cc(OC)c1OC` (centres undefined), the RP-LC retention time amounted to 593 s. The compound `Cc1ccc(-c2cc3c4nnc(SCC(=O)Nc5cccc(C(F)(F)F)c5)n4ccn3n2)cc1` gave an RP-LC retention time of 1040 s. As for `Cc1nc(C)c(-c2ccc(=O)n(CCNC(=O)c3csc(-c4ccccc4)n3)n2)s1`, the RP-LC retention time worked out at 683 s.

With `CCN(CC)CCNC(=O)COc1ccc(Cl)cc1`, the RP-LC retention time turned out to be 694 s.

Compound `O=C(c1cncc(Br)c1)N1CCN(c2ccc(-c3cccs3)nn2)CC1` had an RP-LC retention time of 651 s. For the compound `CCc1cccc(NC(=O)Cn2nc3cc(C)nc(-c4ccccc4)n3c2=O)c1`, the RP-LC retention time was determined as 899 s. With `Cc1cnc(-n2nnc(C(=O)N3CCN(C(=O)c4ccco4)CC3)c2C)s1` the figure was 687 s. With `CCc1ccccc1NC(=O)N1CCCC1c1nc(-c2cccc(OC)c2)no1` (centres undefined) the figure was 957 s; with `CCc1ccc(NC(=O)N2CCN(c3cc(C)nc(N4CCOCC4)n3)CC2)cc1`, 668 s. With `Cc1ccc2nc(CCNC(=O)Cn3nc(C(=O)N4CCCC4)c4ccccc43)[nH]c2c1` the figure was 613 s. `Cc1ccc(CN2C(=O)C3(CCOCC3)CC2c2nnnn2C(C)(C)C)cc1C` (centres undefined) returned an RP-LC retention time of 862 s.

In turn, `O=C(Nc1ccsc1-c1nnc(C2CC2)o1)c1cccc(Br)c1` displayed an RP-LC retention time of 1390 s. The value for `CNC(=O)[C@@H]1CN(C(=O)Cc2ccc(Br)cc2)C[C@H]1CO` was 604 s.

For `CS(=O)(=O)N1CCCN(C(=O)Nc2ccccc2)CC1`, the RP-LC retention time is 649 s. The value for `CCOC(=O)c1cc(-c2ccccc2)n(CCC(=O)N2CCN(c3ccccn3)CC2)c1C` was 715 s; that for `COc1ccc(C2Nn3c(C)nnc3SC2C(=O)N2CCCCCC2)cc1Br` (centres undefined) was 794 s. For `CCNC(=O)c1nc(-c2ccnc(N3CCOCC3)c2)no1`, the RP-LC retention time stood at 644 s. The value for `COc1cc(OC)c(NC(=O)N2CCN(c3ccc(=O)n(-c4ccc(C)cc4)n3)CC2)cc1Cl` was 877 s. With `Cc1ccc(-n2nc(C)c3c(C)c(CCC(=O)N4CCN(c5ccccn5)CC4)c(C)nc32)cc1` the figure was 756 s; with `CC(C)NC(=O)N1CCCN(S(C)(=O)=O)CC1`, 598 s; with `O=C(c1cn2nc(Cl)ccc2n1)N1CCN(c2ccc(Cl)cc2)CC1`, 858 s. In turn, `CC(=O)N1c2ccc(S(=O)(=O)N3CCCCC3)cc2CC1C(=O)NC1CCCC1` (centres undefined) returned an RP-LC retention time of 830 s.

As for `COc1ccc(-c2noc(C3CCCN3C(=O)NCc3ccco3)n2)cc1` (centres undefined), the RP-LC retention time stood at 855 s. The compound `Cc1cc(C)c(NC(=O)Cn2nc3cc(C)nc(-c4ccccc4)n3c2=O)c(C)c1` displayed an RP-LC retention time of 867 s.

Compound `CCC(NC(=O)c1cnc(-c2ccccc2)nc1-c1ccncc1)c1ccc(OC)cc1` (centres undefined) came in with an RP-LC retention time of 882 s.

`COc1ccc(Nc2c(-c3ccc(OC)cc3)nc3ncccn23)cc1` came in with an RP-LC retention time of 659 s. With `Cc1c(-c2cccc(NC(=O)c3cccs3)c2)nc2ncccn12` the figure was 638 s.

The compound `CCc1nc2cc(N3CCC(C(=O)NCc4ccc(F)cc4)CC3)cnc2nc1CC` came in with an RP-LC retention time of 851 s. With `COC(=O)C(NC(=O)N1CC(Cn2c(C)cnc2C2CCOCC2)C1)C(C)C` (centres undefined) the figure was 600 s; with `Cc1nc(-c2ccc(C)c(S(=O)(=O)NCCN(C)C)c2)cs1`, 612 s. The value for `CCc1ccc(-c2cc(C(=O)N3CCN(c4cc(=O)n(C(C)C)c(=O)n4C(C)C)CC3)[nH]n2)cc1` was 946 s; that for `CCN(CC)c1nc2cc(C(=O)OC)ccc2c(=O)n1Cc1ccc(C)cc1` was 1310 s. With `CN1CCc2c(n(CC(O)Cn3nnc4ccccc43)c3ccccc23)C1=O` (centres undefined), the RP-LC retention time was 754 s. Compound `CC(C)C(=O)NCCc1csc(C2CCCN(C(=O)c3cc4ccccc4[nH]3)C2)n1` (centres undefined) returned an RP-LC retention time of 803 s. With `O=C(c1ccc(F)c(Cl)c1)N1CCN(c2cc(-c3cccs3)[nH]n2)CC1` the figure was 800 s.

Consider `O=C(CC(F)(F)F)N1CCCC(CCc2nnc(C3CCOCC3)o2)C1` (centres undefined), for which the RP-LC retention time was 682 s. `Cc1nnc2cc(N3CCN(S(=O)(=O)c4ccc(C(C)(C)C)cc4)CC3)cnn12` had an RP-LC retention time of 824 s. The compound `CCCCn1c(CN2CCCC2)nc2cc(NC(=O)CC)ccc21` registered an RP-LC retention time of 605 s.

In turn, `Cc1ccc(C2Cn3nnc(-c4nc(-c5ccccc5Cl)no4)c3CO2)c(C)c1` (centres undefined) yielded an RP-LC retention time of 1290 s. With `COc1ccc(CN2C[C@@H]3C(=O)N(Cc4ccc5c(c4)OCO5)C(=O)[C@@H]3C2)cc1` the figure was 689 s; with `COc1ccc(C(O)Cn2ccn3nc(-c4cc(C)ccc4C)cc3c2=O)cc1OC` (centres undefined), 879 s.

`Cc1cccc2c(C(=O)NCC(C)C)c3c(nc12)CCC3` had an RP-LC retention time of 688 s. With `COc1ccc(N2CC(c3noc(-c4ccc(C)cc4C)n3)CC2=O)cc1OC` (centres undefined), the RP-LC retention time turned out to be 1000 s. For `Cc1noc(-c2cccc(OC3CN(C(=O)c4cccn4C)C3)c2)n1`, the RP-LC retention time turned out to be 898 s. Regarding `Cc1cc(C2CCCN2C(=O)Nc2ccc(C)c(Cl)c2)on1` (centres undefined), the RP-LC retention time came to 893 s. The value for `Cc1cc(C)c(NC(=O)CN2C(=O)NC3(CCCCC3)C2=O)c(C)c1` was 777 s; that for `COc1ccc(-c2nnc(Cc3nc(-c4ccccc4Cl)no3)o2)cc1` was 973 s. `O=C(NCc1ccccc1C(F)(F)F)C1=C2CCCN2c2ccccc2S1(=O)=O` returned an RP-LC retention time of 916 s. `O=C(C1CCCN(c2ncnc3c2nc2n3CCCCC2)C1)N1CCc2ccccc21` (centres undefined): the RP-LC retention time worked out at 860 s. Take `CCn1cc(S(=O)(=O)N2CCCn3nc(-c4cccs4)cc3C2)cn1`: the RP-LC retention time was found to be 816 s. With `Cc1noc(C)c1CC(=O)N1CC(c2nc(-c3cccs3)no2)C1` the figure was 690 s; with `COCC(C)(O)CNC(=O)c1ccc(F)c(F)c1` (centres undefined), 634 s. With `COc1ccc(N2CCN(C(=O)C3CCN(C(=O)C4Sc5ccccc5NC4=O)CC3)CC2)cc1` (centres undefined) the figure was 705 s. On to `COc1cn2c(cc1=O)C(=O)N(CCNC(=O)C1c3ccccc3Oc3ccccc31)CC2`, for which the RP-LC retention time was determined as 592 s.

The values above are taken from the METLIN SMRT retention time set (Domingo-Almenara et al. 2019).
